Data taken from ChEMBL document CHEMBL4219170, “Design, synthesis and biological evaluation of anti-pancreatic cancer activity of plinabulin derivatives based on the co-crystal structure” (Bioorg Med Chem, 2018).
≈ marks a conversion by molar mass, not a printed value. Calls of active or inactive are those of the source. The rule behind the calls is not given here.

Columns and labels:
BXPC-3 [1] = assay: Antiproliferative activity against human BxPC3 cells after 72 hrs by sulforhodamine B assay; type: functional, cell-based; conditions: BXPC-3, 72 h
[2] = Solubility of the compound in water after 24 hrs by HPLC analysis; type: physicochemical
Tubulin (Homo sapiens) = Tubulin (Homo sapiens) (UniProt P68371+Q9H4B7+P0DPH7+P68366+Q13509+Q71U36+P04350+Q3ZCM7+P07437+P68363+Q9BQE3+Q6PEY2+Q13885+Q9BVA1+Q9BUF5); assay: Inhibition of tubulin polymerization (unknown origin) at 5 uM after 1 min in presence of GTP by fluorescence-based assay relative to control; type: protein-complex assay
Homo sapiens = species: Homo sapiens; assay: Inhibition of beta-tubulin polymerization in human BxPC3 cells at 5 nM after 24 hrs by DAPI staining-based fluorescence microscopic analysis; type: cell-based
BXPC-3 [3] = assay: Antiproliferative activity against human BxPC3 cells at 12.5 nM after 72 hrs by MTT assay relative to control; type: functional

| Structure (SMILES) | IC50 (BXPC-3 [1]) [µM] | solubility [2] [µg/mL] | inhibition (Tubulin (Homo sapiens)) [%] | inhibition (Homo sapiens) | Activity (BXPC-3 [3]) [%] |
| --- | --- | --- | --- | --- | --- |
| CC(C)(C)c1[nH]cnc1/C=c1\[nH]c(=O)/c(=C/c2cccc(C(=O)c3cncs3)c2)[nH]c1=O | 0.0171 | < 0.1 | 19.9 | – | – |
| CN1CCN(C(=O)c2cccc(/C=c3\[nH]c(=O)/c(=C/c4ccccn4)[nH]c3=O)c2)CC1 | > 0.5 | 16.302 (≈ 39 µM) | – | – | – |
| CC(C)(C)c1[nH]cnc1/C=c1\[nH]c(=O)/c(=C/c2ccccc2)[nH]c1=O [PLINABULIN] | 0.00428 | < 0.1 | 18.3 | Active | – |
| O=C(c1ccccc1)c1cccc(/C=c2\[nH]c(=O)/c(=C/c3ccccn3)[nH]c2=O)c1 | 0.00627 | < 0.1 | – | – | 85 |
| CC(C)(C)c1[nH]cnc1/C=c1\[nH]c(=O)/c(=C/c2cccc(C(=O)c3ccco3)c2)[nH]c1=O | 0.00923 | < 0.1 | – | – | – |
| CC(C)(C)c1[nH]cnc1/C=c1\[nH]c(=O)/c(=C/c2cccc(C(=O)N3CCC3)c2)[nH]c1=O | > 0.5 | 4.231 (≈ 10.1 µM) | – | – | – |
| CC(C)(C)c1[nH]cnc1/C=c1\[nH]c(=O)/c(=C/c2cccc(C(=O)c3cccnc3)c2)[nH]c1=O | 0.00405 | < 0.1 | 28.8 | – | – |
| CC(C)(C)c1[nH]cnc1/C=c1\[nH]c(=O)/c(=C/c2cccc(C(=O)c3ccc[nH]3)c2)[nH]c1=O | > 0.1 | – | – | – | – |
| O=C(c1cccc(/C=c2\[nH]c(=O)/c(=C/c3ccccn3)[nH]c2=O)c1)N1CCCCC1 | > 0.5 | < 0.1 | – | – | – |
| CC(C)(C)c1[nH]cnc1/C=c1\[nH]c(=O)/c(=C/c2cccc(C(=O)c3ccccc3)c2)[nH]c1=O | – | < 0.1 | – | – | – |
| CC(C)(C)c1[nH]cnc1/C=c1\[nH]c(=O)/c(=C/c2cccc(C(=O)c3ccsc3)c2)[nH]c1=O | 0.00156 | < 0.1 | 39.3 | – | – |
| CN1CCN(C(=O)c2cccc(/C=c3\[nH]c(=O)/c(=C/c4nc[nH]c4C(C)(C)C)[nH]c3=O)c2)CC1 | > 0.5 | 85.568 (≈ 185 µM) | – | – | – |
| CC(C)(C)c1[nH]cnc1/C=c1\[nH]c(=O)/c(=C/c2cccc(C(=O)c3ccoc3)c2)[nH]c1=O | 0.00941 | < 0.1 | – | – | – |
| CC(C)(C)c1[nH]cnc1/C=c1\[nH]c(=O)/c(=C/c2cccc(C(=O)c3ccncc3)c2)[nH]c1=O | 0.0238 | < 0.1 | 34.1 | – | – |
| O=C(c1cccc(/C=c2\[nH]c(=O)/c(=C/c3ccccn3)[nH]c2=O)c1)N1CCC1 | > 0.5 | 0.662 (≈ 1.77 µM) | – | – | – |
| CC(C)(C)c1[nH]cnc1/C=c1\[nH]c(=O)/c(=C/c2cccc(C(=O)N3CCCC3)c2)[nH]c1=O | 0.325 | 0.454 (≈ 1.05 µM) | – | – | – |
| CC(C)(C)c1[nH]cnc1/C=c1\[nH]c(=O)/c(=C/c2cccc(C(=O)c3cc[nH]c3)c2)[nH]c1=O | > 0.1 | – | – | – | – |
| CC(C)(C)c1[nH]cnc1/C=c1\[nH]c(=O)/c(=C/c2cccc(C(=O)c3ccccn3)c2)[nH]c1=O | 0.00758 | < 0.1 | 36.6 | – | – |
| CC(C)(C)c1[nH]cnc1/C=c1\[nH]c(=O)/c(=C/c2cccc(C(=O)N3CCOCC3)c2)[nH]c1=O | 0.257 | 1.79 (≈ 3.98 µM) | – | – | – |
| CC(C)(C)c1[nH]cnc1/C=c1\[nH]c(=O)/c(=C/c2cccc(C(=O)N3CCCCC3)c2)[nH]c1=O | 0.1 | < 0.1 | – | – | – |
| CC(C)(C)c1[nH]cnc1/C=c1\[nH]c(=O)/c(=C/c2cccc(C(=O)c3cccs3)c2)[nH]c1=O | 0.00172 | < 0.1 | 46.4 | – | – |
